Data: patent US7481993B2, “Chelators for radioactively labeled conjugates comprising a stabilizing sidechain” (Schering AG, priority 2005, dated 2009)
“And” between values parts separate entries of the source, which are not always exact repeats. Identical values can stand only once. * marks the point of attachment. Bz = O=C(c1ccccc1)*

Assay: Cysteine challenge stability of ^99mTc chelator peptides
Format: physicochemical
Method: For the ^99mTc radiolabeling, a peptide as the TFA salt was dissolved in saline at 1 mg/mL and 100 μg (100 μL) was added to a ^99mTc placebo vial. The vial was reconstituted with 0.9 mL technetium ^99mTc sodium pertechnetate containing approximately 20 mCi and saline such that the final preparation volume was 1.1 mL. The vial was heated in a boiling water bath for 10 minutes and cooled at room temperature for 10 minutes.
The radiochemical purity (RCP) of the ^99mTc or ^188Re peptides was measured by gradient reversed phase HPLC using a Eurosphere-100 C18 HPLC column and 0.1% TFA mobile phases moderated with acetonitrile. Radioactive components were detected in the HPLC system using an in-line radiometric detector. Under the gradient conditions employed radiolabeled impurities (for example: ^99mTc glucoheptonate, ^99mTc edetate, and ^99mTc pertechnetate) eluted early (between 1 and 4 minutes), while the radiolabeled peptides eluted much later (between 8 and 20 minutes). In general, two isomeric radiometal complexes were observed, and the HPLC RCP was measured as the sum of the percent areas of the peaks corresponding to the two complexes. Radiochemical purity results for each of compounds are summarized in the examples that follow.
To ^99mTc radiolabelled peptide preparations described in Example 3 was added 150 μg of cysteine (approximately a 7-fold molar excess over peptide), and the preparations were stored at room temperature and monitored by HPLC for up to 12 hours. The amount of ^99mTc cysteine formed over time was noted. The initial HPLC analysis was started within 5 minutes of adding cysteine. In all cysteine challenge studies, a chelator compound containing a stabilizing sidechain was screened vs. the corresponding control chelator compound containing no sidechain. The relative amount of ^99mTc cysteine formed over time correlates inversely with the stability of the chelator (ie. less ^99mTc cysteine indicates higher chelator stability).
Several model chelator peptides were prepared with an N^1—N^2-Cys (N^1, N^2=independently any amino acid) amino acid sequence capable of complexing technetium as a triamide thiol chelator. Various stabilizing sidechains were substituted into the N^1—N^2-Cys chelator in two positions R1 and R2 as depicted in FIG. 4. The compounds were screened in the cysteine challenge experiment described in Example 4. Several experiments were conducted where 1-2 chelators were compared directly to a control chelator containing no stabilizing sidechain (compound GoC1 was also analyzed alone in a further study). Results in Table 5 represent % Peptide complexed to ^99mTc (ie. 100%−the amount of ^99mTc cysteine) vs. time.
Several model chelator peptides were prepared with an (β)Dap-N^2-Cys (N^2=any amino acid) amino acid sequence capable of complexing technetium as an amine diamide thiol chelator. This chelator is the chelator in the somatostatin peptides that were evaluated in Examples 5 and 6. Various stabilizing sidechains were substituted into the (β)Dap-N^2-Cys chelator in two positions R3 and R4 as depicted in FIG. 5. The compounds were screened in the cysteine challenge experiment described in Example 4. Several experiments were conducted where 1-2 chelators were compared directly to a control chelator containing no stabilizing sidechain. Results in Table 6 are the same as described in Example 7.
Two model chelator peptides were prepared with a ma-N^1—N^2 (Ma=mercaptoacetyl; N^1, N^2=independently any amino acid) amino acid sequence capable of complexing technetium as a triamide thiol chelator. This chelator has the thiol donor group at the N-terminus of the peptide. A stabilizing sidechain was substituted into the ma-N^1—N^2 chelator in position R5 as depicted in FIG. 6. The compounds were radiolabeled according to Example 3 with the exception that additional NaOH was added to bring the pH of the preparation up to pH 8.5. […]

[1] = N1-N2-Cys triamide thiol chelators, 150 μg cysteine, room temperature, Initial (within 5 minutes)
[2] = N1-N2-Cys triamide thiol chelators, cysteine challenge
[3] = (β)Dap-N2-Cys amine diamide thiol chelators, cysteine challenge
[4] = (β)Dap-N2-Cys amine diamide thiol chelators, cysteine challenge, Initial
[5] = Ma-N1-N2 triamide thiol chelators, preparation pH 8.5, cysteine challenge
[6] = (β)Dap-N2-Cys amine diamide thiol chelators, cysteine challenge, listed as Dap.GC

Row | Substance | % Peptide Complexed to ^99mTc Initial [1] | % Peptide Complexed to ^99mTc 2 h [2] | % Peptide Complexed to ^99mTc 4 h [2] | % Peptide Complexed to ^99mTc 6 h [2] | % Peptide Complexed to ^99mTc 8 h [2] | % Peptide Complexed to ^99mTc 10 h [2] | % Peptide Complexed to ^99mTc 12 h [2] | % Peptide Complexed to ^99mTc 2 h [3] | % Peptide Complexed to ^99mTc 4 h [3] | % Peptide Complexed to ^99mTc 6 h [3] | % Peptide Complexed to ^99mTc 8 h [3] | % Peptide Complexed to ^99mTc 10 h [3] | % Peptide Complexed to ^99mTc 12 h [3] | % Peptide Complexed to ^99mTc Initial [4] | further results
1 | Bz-Gly-Gly-Gln-Cys-Ala.amide (Bz-GGQCA-NH2; SMILES C[C@H](NC(=O)[C@H](CS)NC(=O)[C@H](CCC(N)=O)NC(=O)CNC(=O)CNC(=O)c1ccccc1)C(N)=O) | 97.8% | 93.2% | 88.7% | 82.4% | 80.1% | 78.7% | 73.5% | – | – | – | – | – | – | – | –
2 | Ac-Tyr-Gly-(β)Dap(COCH2CH2NH2)-Gly-Cys-Ala.amide [Dap-Y.GC] | – | – | – | – | – | – | – | 84.6% | 84.1% | 82.9% | 80.7% | 80.0% | 77.2% | 93.7% | –
3 | Ac-Tyr-Gly-Gly-His-Cys-Ala.amide (Ac-YGGHCA-NH2) | 78.8% | 74.3% | 72.9% | 70.9% | 68.8% | 69.2% | 67.9% | – | – | – | – | – | – | – | –
4 | Ac-Tyr-Gly-Gly-(D)Orn-Cys-Ala.amide [GoC2] | 94.3% | 91.1% | 89.1% | 89.2% | 89.0% | 87.2% | 86.9% | – | – | – | – | – | – | – | –
5 | Ac-Tyr-Gly-(β)Dap-Gly-Cys-Ala.amide [Dap.GC2] | – | – | – | – | – | – | – | 67.7% | 55.1% | 49.6% | 44.7% | 38.0% | 38.7% | 83.4% | –
6 | Ma-(D)Orn-Gly-Tyr-Ala.amide [Ma.oC] | – | – | – | – | – | – | – | – | – | – | – | – | – | – | % Peptide Complexed to ^99mTc 2 h [5]: 87.4%; % Peptide Complexed to ^99mTc 4 h [5]: 87.2%; % Peptide Complexed to ^99mTc 6 h [5]: 84.9%; % Peptide Complexed to ^99mTc 8 h [5]: 85.9%; % Peptide Complexed to ^99mTc 10 h [5]: 84.1%; % Peptide Complexed to ^99mTc 12 h [5]: 82.7%; % Peptide Complexed to ^99mTc Initial (Ma-N1-N2 triamide thiol chelators, preparation pH 8.5, cysteine challenge, Initial): 100%
7 | Ac-Tyr-Gly-Gln-Gly-Cys-Ala.amide (Ac-YGQGCA-NH2) | 92.9% and 96.3% | 88.7% and 88.3% | 88.8% and 86.1% | 86.6% and 84.0% | 85.6% and 82.0% | 83.8% and 77.6% | 84.2% and 75.9% | – | – | – | – | – | – | – | –
8 | Bz-Gly-(β)Dap-Met-Cys-Ala.amide [Dap.MC] | – | – | – | – | – | – | – | 95.4% | 89.8% | 92.6% | 91.6% | 88.4% | 89.7% | 97.4% | –
9 | Bz-Gly-(β)Dap-Gly-Cys-Ala.amide [Dap.GC1] | – | – | – | – | – | – | – | 78.1% | 62.7% | 57.8% | 51.9% | 46.2% | 43.3% | 81.7% | % Peptide Complexed to ^99mTc 2 h [6]: 78.9%; % Peptide Complexed to ^99mTc 4 h [6]: 42.6%; % Peptide Complexed to ^99mTc 6 h [6]: 51.6%; % Peptide Complexed to ^99mTc 8 h [6]: 46.3%; % Peptide Complexed to ^99mTc 12 h [6]: 37.6%
10 | Ac-Tyr-Gly-Glu-Gly-Cys-Ala.amide (Ac-YGEGCA-NH2) | 91.4% | 84.1% | 78.1% | 73.3% | 67.4% | 60.1% | – | – | – | – | – | – | – | – | –
11 | Ac-Tyr-Gly-Gly-Gly-Cys-Ala.amide (Ac-YGGGCA-NH2) [GGC2, control chelator, no stabilizing sidechain] | 90.1% and 92.0% and 95.7% and 93.6% | 70.7% and 80.7% and 79.3% and 81.0% and 77.8% | 61.8% and 72.0% and 70.5% and 73.3% and 67.5% | 57.1% and 65.7% and 65.6% and 61.0% and 60.4% | 46.2% and 61.0% and 57.8% and 53.0% and 54.7% | 39.1% and 59.0% and 55.1% and 48.0% and 50.2% | 33.3% and 57.2% and 44.5% and 41.2% and 46.6% | – | – | – | – | – | – | – | –
12 | Ac-Tyr-Gly-Gly-Orn-Cys-Ala.amide [GOC] | 98.2% | 93.8% | 90.0% | 86.1% | 80.0% | 78.1% | 88.6% | – | – | – | – | – | – | – | –
